Consider 61 compounds from the Kinase Knowledgebase extract (Sharma et al. 2016).

pIC50: −log10 of the molar value. Where only a bound is given, the exact number is not on record here.

PIK3CA (human), sequence (P42336 whole entry, looked up): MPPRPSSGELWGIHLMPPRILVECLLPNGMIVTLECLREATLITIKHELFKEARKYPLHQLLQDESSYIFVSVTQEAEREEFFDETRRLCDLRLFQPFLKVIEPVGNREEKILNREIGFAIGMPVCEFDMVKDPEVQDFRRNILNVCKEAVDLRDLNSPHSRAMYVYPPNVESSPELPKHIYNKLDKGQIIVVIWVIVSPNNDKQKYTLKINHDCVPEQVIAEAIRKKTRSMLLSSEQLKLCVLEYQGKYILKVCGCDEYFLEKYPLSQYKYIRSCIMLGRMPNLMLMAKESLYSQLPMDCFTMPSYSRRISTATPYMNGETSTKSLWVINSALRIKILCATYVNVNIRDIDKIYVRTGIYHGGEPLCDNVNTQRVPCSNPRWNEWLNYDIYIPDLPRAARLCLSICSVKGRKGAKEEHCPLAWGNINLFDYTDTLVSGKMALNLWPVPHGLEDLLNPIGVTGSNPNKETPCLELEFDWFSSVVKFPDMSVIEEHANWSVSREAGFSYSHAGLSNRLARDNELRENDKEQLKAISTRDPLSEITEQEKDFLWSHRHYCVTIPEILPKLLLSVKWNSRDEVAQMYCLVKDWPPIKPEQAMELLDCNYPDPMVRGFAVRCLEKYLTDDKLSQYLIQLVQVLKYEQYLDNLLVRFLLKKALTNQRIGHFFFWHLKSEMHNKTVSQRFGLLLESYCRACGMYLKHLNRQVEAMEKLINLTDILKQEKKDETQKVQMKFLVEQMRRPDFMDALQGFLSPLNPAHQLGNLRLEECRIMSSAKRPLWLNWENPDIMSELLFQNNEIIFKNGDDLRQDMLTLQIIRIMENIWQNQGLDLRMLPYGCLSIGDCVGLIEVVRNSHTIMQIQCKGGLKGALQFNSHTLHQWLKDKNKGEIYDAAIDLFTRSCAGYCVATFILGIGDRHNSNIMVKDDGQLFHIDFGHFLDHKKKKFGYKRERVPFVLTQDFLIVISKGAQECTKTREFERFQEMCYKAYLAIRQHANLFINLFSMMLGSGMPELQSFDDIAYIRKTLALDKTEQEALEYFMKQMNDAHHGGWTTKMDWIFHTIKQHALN

The test has as its target PIK3CA (human) (UniProt P42336). Put plainly: Assessment of PIK3CA Kinase Activity.
Regarding `CC(C)n1ncnc1-c1cn2c(n1)-c1ccc(C3CCN(CCS(=O)(=O)N(C)C)CC3)cc1OCC2`, the negative logarithm of the IC50 (pIC50) (commonly the IC50 on a negative log10 scale, so that one unit is a factor of ten) is > 6.00.
Then `Cc1n[nH]c(-c2cn3c(n2)-c2ccc(-c4cnn(CCO)c4)cc2OCC3)n1`, with > 6.00; and `CC(C)n1ncnc1-c1cn2c(n1)-c1ccc(C3CN(CC(=O)N(C)C)C3)cc1OCC2`, with > 6.00.
For `CC(C)n1nccc1-c1cn2c(n1)CCOc1cc(C(N)=O)cnc1-2`, the pIC50 is > 6.00.
Consider `Cc1nc(-c2cn3c(n2)-c2ccc(OC4CC4)cc2OCC3)n(C(C)C)n1`, for which the pIC50 is > 6.00.
Under `Cc1nc(-c2cn3c(n2)-c2ccc(Br)cc2OCC3)n(C(C)C)n1` stands > 6.00; under `CC(C)n1nc(CO)nc1-c1cn2c(n1)-c1ccccc1OCC2`, > 6.00; under `CC(C)n1ncnc1-c1cc2n(n1)-c1cc(CN3CCNC(=O)C3)ccc1OCC2`, > 6.00.
Then `CC(C)n1nc(CO)nc1-c1cn2c(n1)-c1ccc(-c3cnn(CC(C)(C)O)c3)cc1OCC2`, with > 6.00; and `Cc1nc(-c2cn3c(n2)-c2ccc([C@@H]4CCCN4C(N)=O)cc2OCC3)n(C(C)C)n1`, with > 6.00; and `CC(C)n1ncnc1-c1cn2c(n1)-c1cc(C(=O)N3CCC(C(C)(C)O)CC3)ccc1OCC2`, with > 6.00.
For the compound `Clc1ccc(-c2ccc3c(c2)OCCn2cc(-c4ncnn4-c4ccccc4Cl)nc2-3)cc1`, the pIC50 is > 6.00.
Under `CC(C)n1ncnc1-c1cn2c(n1)-c1ccc(-c3ccccc3S(C)(=O)=O)cc1OCC2` stands > 6.00; under `Cc1nc(-c2cn3c(n2)-c2cnc(N)cc2OCC3)n(C(C)C)n1`, > 6.00; under `Cc1nc(-c2cn3c(n2)-c2ccc(F)cc2OCC3)n(C(C)C)n1`, > 6.00.
Then `Cc1nc(-c2cn3c(n2)-c2cnc(N4CCC[C@H]4C(N)=O)cc2OCC3)n(CC(F)(F)F)n1`, with > 6.00; and `CC(C)n1ncnc1-c1cn2c(n1)-c1ccc(OC3COC3)cc1OCC2`, with > 6.00.
Under `CC(C)n1ncnc1-c1cn2c(n1)-c1ccc(C3CN(S(=O)(=O)CCN4CC(F)C4)C3)cc1OCC2` stands > 6.00; under `Cc1nc(-c2cn3c(n2)-c2ccc(N4CCC[C@H]4C(N)=O)cc2OCC3)n(CC(F)(F)F)n1`, > 6.00.
Consider `CC(C)n1ncnc1-c1cn2c(n1)-c1ccc(N3CCC[C@H]3C(N)=O)cc1OCC2`, for which the negative logarithm of the IC50 (pIC50) was > 6.00.
For the compound `COCc1nc(-c2cn3c(n2)-c2ccc(-c4cnn(CC(C)(C)O)c4)cc2OCC3)n(C(C)C)n1`, the negative-log IC50 (pIC50) is > 6.00.
Then `CC(C)n1ncnc1-c1cn2c(n1)-c1cnc(N3CC[C@H](C)[C@H]3C(N)=O)cc1OCC2`, with > 6.00; and `CC(C)n1ncnc1-c1cn2c(n1)-c1cc(NC3CNC3)ncc1OCC2`, with > 6.00.
In the case of `Cc1nc(-c2cn3c(n2)-c2ccc(C4CCN(CC(=O)N(C)C)CC4)cc2OCC3)n(C(C)C)n1`, the negative-log IC50 (pIC50) is > 6.00.
Under `Cc1nc(-c2cn3c(n2)-c2ccc(C4COC4)cc2OCC3)n(C(C)C)n1` stands > 6.00; under `CC(C)n1ncnc1-c1cn2c(n1)-c1cnc(N3CCC[C@@H]3C(N)=O)cc1OCC2`, > 6.00; under `CC(C)n1ncnc1-c1cn2c(n1)-c1ccc([C@@H]3C[C@H]4CC[C@@H](C3)N4CC(N)=O)cc1OCC2`, > 6.00.
Then `CS(=O)(=O)CCN1CCC(c2ccc3c(c2)-c2nn(-c4ncnn4-c4ccc(F)cc4F)cc2CCO3)CC1`, with > 6.00; and `CC(C)n1ncnc1-c1cn2c(n1)-c1cc(N3CCNC(=O)C3)ncc1OCC2`, with > 6.00; and `O=C(c1ccc2c(c1)-c1nc(-c3ncnn3-c3ccc(F)cc3F)cn1CCO2)N1CCN(CCO)CC1`, with > 6.00.
For `Cc1nc(-c2cn3c(n2)-c2ccc(C4CCN(CC(N)=O)CC4)cc2OCC3)n(C(C)C)n1`, the pIC50 was > 6.00.
Under `CCNC(=O)CN1CCC(c2ccc3c(c2)OCCn2cc(-c4nc(C)nn4C(C)C)nc2-3)CC1` stands > 6.00; under `CC(C)n1ncnc1-c1cn2c(n1)-c1ccc(CCS(N)(=O)=O)cc1OCC2`, > 6.00; under `CC(C)n1ncnc1-c1cn2c(n1)-c1cnc(N3CC=C[C@H]3C(N)=O)cc1OCC2`, > 6.00.
Under `Cc1nc(-c2cn3c(n2)-c2cnc(N4CC[C@H](O)[C@H]4C(N)=O)cc2OCC3)n(C(C)C)n1` stands > 6.00; under `CC(C)n1nc(N)nc1-c1cn2c(n1)-c1ccc(C3CC3)cc1OCC2`, > 6.00.
Under `N#Cc1ccc2c(c1)OCCn1cc(-c3nc(N)nn3CC(F)(F)F)nc1-2` stands > 6.00; under `CC(C)n1ncnc1-c1cn2c(n1)-c1ccc(N3CC(C(N)=O)C3)nc1OCC2`, > 6.00.
In the case of `CO[C@@H]1C[C@@H](C(N)=O)N(c2cc3c(cn2)-c2nc(-c4ncnn4C(C)C)cn2CCO3)C1`, the pIC50 is > 6.00.
For the compound `C[C@H](Nc1ccc2c(c1)OCCn1cc(-c3ncnn3CC(F)(F)F)nc1-2)C(N)=O`, the pIC50 is > 6.00.
Then `CC(C)n1ncnc1-c1cn2c(n1)-c1ccc(O[C@@H](CO)C(N)=O)cc1OCC2`, with > 6.00.
With `Oc1ccc2c(c1)OCCn1cc(-c3ncnn3CC(F)(F)F)nc1-2`, the negative-log IC50 (pIC50) is > 6.00.
Under `Cc1nc(-c2cn3c(n2)-c2cnc(N4CC(F)(F)C[C@H]4C(N)=O)cc2OCC3)n(C(C)C)n1` stands > 6.00.
For `CC(C)n1ncnc1-c1cn2c(n1)-c1ccc(C3CCN(CC(=O)NC(C)(C)C)CC3)cc1OCC2`, the negative-log IC50 (pIC50) is > 6.00.
Then `CNC(=O)[C@@H]1CCCN1c1cc2c(cn1)-c1nc(-c3ncnn3C(C)C)cn1CCO2`, with > 6.00.
Then `Cc1nc(-c2cn3c(n2)-c2ccc(C#N)cc2OCC3)n(C(C)C)n1`, with > 6.00; and `CC(C)n1ncnc1-c1cn2c(n1)-c1ccc(OCC(N)=O)cc1OCC2`, with > 6.00; and `CC(C)n1nc(N)nc1-c1cn2c(n1)-c1ccc(C#N)cc1OCC2`, with > 6.00.
As for `OCCn1cc(-c2ccc3c(c2)OCCn2cc(-c4ncnn4CC(F)(F)F)nc2-3)cn1`, the pIC50 was > 6.00.
Then `Cc1nc(-c2cn3c(n2)-c2ccc(-c4cnn(CC(C)(C)O)c4)cc2OCC3)n(C(C)C)n1`, with > 6.00; and `CC(C)n1ncnc1-c1cn2c(n1)-c1ccc(OCC3(N)COC3)cc1OCC2`, with > 6.00.
Consider `CC(C)n1nc(N)nc1-c1cn2c(n1)-c1cc(-c3ccc(Cl)cc3)ccc1OCC2`, for which the negative logarithm of the IC50 (pIC50) was > 6.00.
Under `Cc1nc(-c2cn3c(n2)-c2ccc(CN)cc2OCC3)n(-c2ccc(F)cc2F)n1` stands > 6.00; under `CC(C)C(Oc1ccc2c(c1)OCCn1cc(-c3ncnn3C(C)C)nc1-2)C(N)=O` (stereo unspecified), > 6.00.
Under `Cc1nc(-c2cn3c(n2)-c2cnc(N4CCCC4CN4CCCCC4)cc2OCC3)n(CC(F)(F)F)n1` (stereo unspecified) stands > 6.00.
Under `CC(C)[C@H](Oc1ccc2c(c1)OCCn1cc(-c3ncnn3CC(F)(F)F)nc1-2)C(N)=O` stands > 6.00; under `CC(=O)Nc1ccc(-c2ccc3c(c2)OCCn2cc(-c4nc(C)nn4C(C)C)nc2-3)cn1`, > 6.00.
For `CC(C)n1ncnc1-c1cn2c(n1)-c1cnc(N3CCNC(=O)C3)cc1OCC2`, the pIC50 was > 6.00.
Then `Cc1nc(-c2cn3c(n2)-c2ccc(-c4cn[nH]c4)cc2OCC3)n(C(C)C)n1`, with > 6.00.
Then `CC(C)n1ncnc1-c1cn2c(n1)-c1cnc(N(C)CC(N)=O)cc1OCC2`, with > 6.00; and `CC(C)n1nc(C2CC2)nc1-c1cn2c(n1)-c1ccc(Br)cc1OCC2`, with > 6.00.
